Residues, ends and D or L forms follow the SMILES beside them. *: point of attachment. Cbz = O=C(OCc1ccccc1)*; Boc = CC(C)(C)OC(=O)*; CH2Cl = ClC*
How the values were obtained:
Toxicity test (LD50) = details: mouse, in vivo; ip, ICR male mice
Description: Using 4-weeks-old male ICR mice weighing 15-20 g, the value of LD50 was calculated by orally or intraperitoneally administering the prolinal derivatives to the mice and counting the deceased mice according to the conventional method.

[1] = system: experimental amnestic rats; assay: passive avoidance response of rats (scopolamine-induced amnesia), retention test; type: in vivo, male Wister SLC rat; details: scopolamine 3 mg/kg i.p.
Description: The method of assay of the anti-amnestic action was carried out according to the method reported by A. Kubota et al. in Int. […] A passive avoidance chamber used in this test was surrounded with inside-visible transparent plastic plates and included an electrifiable grid floor (30 cm in length and 30 cm in width) capable of being derivered with an electric current of 1.7 mA in strength for electric foot shock and a platform (15 cm in length, 15 cm in width and 4 cm in height) placed at the right back corner thereof. A male Wister SLC rat (weighing 100-150 g) was placed in the passive avoidance chamber and, when he stepped down on the floor, the electric current was sent to the grid continuously until he went up on the platform. Repeating this test with another rat, the rats stayed on the platform for more than 15 seconds were taken out of the chamber, being regarded to have learned the situation. This electric shock was normally 2 or 3 times. To avoid any difference in the rats, those required 10 seconds for the first step-down and those stepped down on the floor at least 5 times were excluded. Among the learned or trained rats, the first control group of them were intraperitoneally administered with 0.5% CMC solution and the other groups of them were intraperitoneally administered with scopolamine hydrobromide in a dose of 3 mg/Kg to prepare experimental amnestic rats. The prolinal derivatives of the general formula to be tested were in each case intraperitoneally or orally administered to the rats in an amount shown in Table 1 or 2 one after completion of the learning. In each case, the polinal derivatives are used as having been dissolved or suspended in a 0.5% CMC solution.

[2] = system: proline-specific endopeptidase (post-proline cleaving enzyme); details: cited from earlier work

SMILES: CC(=O)NCC(=O)N1CCC[C@H]1C=O [Acetyl-glycyl-prolinal, acetyl-glycyl-prolinal] (Ac-Gly-Pro-aldehyde)
- LD50 (Toxicity test (LD50)): > 1000 mg/kg
- Retention Test Latency, 24 hr ([1]; 1.3 mg/kg i.p. after training): 274.9 s
- Retention Test Latency, 48 hr ([1]; 1.3 mg/kg i.p. after training): 198.6 s
- Retention Test Latency, 24 hr ([1]; 1.3 mg/kg p.o. after training): 221.6 s
- Retention Test Latency, 48 hr ([1]; 1.3 mg/kg p.o. after training): 143.2 s

SMILES: CC(=O)N1CCC[C@H]1C(=O)N1CCC[C@H]1C=O [Acetyl-prolyl-prolinal, acetyl-prolyl-prolinal] (Ac-Pro-Pro-aldehyde)
- LD50 (Toxicity test (LD50)): 767 mg/kg
- Retention Test Latency, 24 hr ([1]; 2.3 mg/kg i.p. after training): > 300.0 s
- Retention Test Latency, 48 hr ([1]; 2.3 mg/kg i.p. after training): > 300.0 s
- Retention Test Latency, 24 hr ([1]; 2.3 mg/kg p.o. after training): 204.2 s
- Retention Test Latency, 48 hr ([1]; 2.3 mg/kg p.o. after training): 177.4 s

SMILES: C[C@H](NC(=O)OCc1ccccc1)C(=O)N1CCC[C@H]1C=O [N--Benzyloxycarbonyl-alanyl-prolinal, N-benzyloxycarbonyl-alanyl-prolinal] (Cbz-Ala-Pro-aldehyde)
- LD50 (Toxicity test (LD50)): 954 mg/kg
- Retention Test Latency, 24 hr ([1]; 2.0 mg/kg i.p. after training): 189.0 s
- Retention Test Latency, 48 hr ([1]; 2.0 mg/kg i.p. after training): 203.4 s
- Retention Test Latency, 24 hr ([1]; 2.0 mg/kg p.o. after training): 165.4 s
- Retention Test Latency, 48 hr ([1]; 2.0 mg/kg p.o. after training): 155.2 s

SMILES: O=C[C@@H]1CCCN1C(=O)CNC(=O)OCc1ccccc1 [N--Benzyloxycarbonyl-glycyl-prolinal, N-benzyloxycarbonyl-glycyl-prolinal] (Cbz-Gly-Pro-aldehyde)
- LD50 (Toxicity test (LD50)): > 1000 mg/kg
- Retention Test Latency, 24 hr ([1]; 1.9 mg/kg i.p. after training): > 300.0 s
- Retention Test Latency, 48 hr ([1]; 1.9 mg/kg i.p. after training): > 300.0 s
- Retention Test Latency, 24 hr ([1]; 1.9 mg/kg p.o. after training): 230.4 s
- Retention Test Latency, 48 hr ([1]; 1.9 mg/kg p.o. after training): 175.5 s

SMILES: CC(C)C[C@H](NC(=O)OCc1ccccc1)C(=O)N1CCC[C@H]1C=O [N--Benzyloxycarbonyl-leucyl-prolinal, N-benzyloxycarbonyl-leucyl-prolinal] (Cbz-Leu-Pro-aldehyde)
- LD50 (Toxicity test (LD50)): > 1000 mg/kg
- Retention Test Latency, 24 hr ([1]; 3.5 mg/kg i.p. after training): > 300.0 s
- Retention Test Latency, 48 hr ([1]; 3.5 mg/kg i.p. after training): > 300.0 s
- Retention Test Latency, 24 hr ([1]; 3.5 mg/kg p.o. after training): 281.6 s
- Retention Test Latency, 48 hr ([1]; 3.5 mg/kg p.o. after training): 219.5 s

SMILES: O=C[C@@H]1CCCN1C(=O)[C@@H]1CCCN1C(=O)OCc1ccccc1 [N--Benzyloxycarbonyl-prolyl-prolinal, N-benzyloxycarbonyl-prolyl-prolinal] (Cbz-Pro-Pro-aldehyde)
- LD50 (Toxicity test (LD50)): > 1000 mg/kg

SMILES: CC(C)[C@H](NC(=O)OCc1ccccc1)C(=O)N1CCC[C@H]1C=O [N--Benzyloxycarbonyl-valyl-prolinal, N-benzyloxycarbonyl-valyl-prolinal] (Cbz-Val-Pro-aldehyde)
- LD50 (Toxicity test (LD50)): 825 mg/kg
- Retention Test Latency, 24 hr ([1]; 2.2 mg/kg i.p. after training): > 300.0 s
- Retention Test Latency, 48 hr ([1]; 2.2 mg/kg i.p. after training): > 300.0 s
- Retention Test Latency, 24 hr ([1]; 2.2 mg/kg p.o. after training): 254.8 s
- Retention Test Latency, 48 hr ([1]; 2.2 mg/kg p.o. after training): 210.5 s

SMILES: O=C(NCC(=O)N1CCC[C@H]1C(=O)CCl)OCc1ccccc1 [N-benzyloxycarbonylglycyl-L-prolyl-chloromethane] (Cbz-Gly-Pro-CH2Cl)
- inhibitory action to the endopeptidase [2]: strong inhibitory action

SMILES: C[C@H](NC(=O)OC(C)(C)C)C(=O)N1CCC[C@H]1C=O [t-Butyloxycarbonyl-alanyl-prolinal, t-butyloxycarbonyl-alanyl-prolinal] (Boc-Ala-Pro-aldehyde)
- LD50 (Toxicity test (LD50)): 796 mg/kg
- Retention Test Latency, 24 hr ([1]; 1.8 mg/kg i.p. after training): 293.5 s
- Retention Test Latency, 48 hr ([1]; 1.8 mg/kg i.p. after training): 250.4 s
- Retention Test Latency, 24 hr ([1]; 1.8 mg/kg p.o. after training): 239.8 s
- Retention Test Latency, 48 hr ([1]; 1.8 mg/kg p.o. after training): 226.7 s

SMILES: CC(C)(C)OC(=O)N[C@@H](Cc1ccccc1)C(=O)N1CCC[C@H]1C=O [t-Butyloxycarbonyl-phenylalanyl-prolinal, t-butyloxycarbonyl-phenylalanyl-prolinal] (Boc-Phe-Pro-aldehyde)
- LD50 (Toxicity test (LD50)): > 1000 mg/kg
- Retention Test Latency, 24 hr ([1]; 3.0 mg/kg i.p. after training): > 300.0 s
- Retention Test Latency, 48 hr ([1]; 3.0 mg/kg i.p. after training): 264.3 s
- Retention Test Latency, 24 hr ([1]; 3.0 mg/kg p.o. after training): > 300.0 s
- Retention Test Latency, 48 hr ([1]; 3.0 mg/kg p.o. after training): 250.2 s

SMILES: CC(C)(C)OC(=O)N[C@@H](CO)C(=O)N1CCC[C@H]1C=O [t-Butyloxycarbonyl-seryl-prolinal, t-butyloxycarbonyl-seryl-prolinal] (Boc-Ser-Pro-aldehyde)
- LD50 (Toxicity test (LD50)): > 1000 mg/kg
- Retention Test Latency, 24 hr ([1]; 2.9 mg/kg i.p. after training): > 300.0 s
- Retention Test Latency, 48 hr ([1]; 2.9 mg/kg i.p. after training): > 300.0 s
- Retention Test Latency, 24 hr ([1]; 2.9 mg/kg p.o. after training): 262.9 s
- Retention Test Latency, 48 hr ([1]; 2.9 mg/kg p.o. after training): 185.2 s

SMILES: CC(C)(C)OC(=O)N[C@@H](Cc1ccc(O)cc1)C(=O)N1CCC[C@H]1C=O [t-Butyloxycarbonyl-tyrosyl-prolinal, t-butyloxycarbonyl-tyrosyl-prolinal] (Boc-Tyr-Pro-aldehyde)
- LD50 (Toxicity test (LD50)): 933 mg/kg
- Retention Test Latency, 24 hr ([1]; 3.6 mg/kg i.p. after training): 250.8 s
- Retention Test Latency, 48 hr ([1]; 3.6 mg/kg i.p. after training): 206.9 s
- Retention Test Latency, 24 hr ([1]; 3.6 mg/kg p.o. after training): 180.5 s
- Retention Test Latency, 48 hr ([1]; 3.6 mg/kg p.o. after training): 192.1 s
